According to ChEMBL document CHEMBL1155951 (Bioorg Med Chem Lett, 2008):

Assays:
[1] = Selectivity index, ratio of IC50 for african green monkey (Cercopithecus aethiops) Vero cells to IC50 for chloroquine-resistant Plasmodium falciparum FcB1; type: toxicity, cell-based; conditions: read-out: Ratio IC50
[2] = test system: Plasmodium falciparum; assay: Antiplasmodial activity against chloroquine-sensitive Plasmodium falciparum F32 after 48 hrs by [3H]hypoxanthine uptake; type: functional, organism-based
[3] = Selectivity index, ratio of IC50 for african green monkey (Cercopithecus aethiops) Vero cells to IC50 for chloroquine-resistant Plasmodium falciparum FcM29; type: toxicity, cell-based; conditions: read-out: Ratio IC50
[4] = test system: Plasmodium falciparum; assay: Antiplasmodial activity against chloroquine-resistant Plasmodium falciparum W2 gametocytes after 48 hrs by microscopy; type: functional, organism-based; conditions: W2, 48 h
[5] = Selectivity index, ratio of IC50 for african green monkey (Cercopithecus aethiops) Vero cells to IC50 for chloroquine-sensitive Plasmodium falciparum F32; type: toxicity, cell-based; conditions: read-out: Ratio IC50
[6] = test system: Plasmodium falciparum; assay: Antiplasmodial activity against chloroquine-resistant Plasmodium falciparum FcM29 after 48 hrs by [3H]hypoxanthine uptake; type: functional, organism-based
[7] = test system: Vero; assay: Cytotoxicity against african green monkey Vero cells assessed as [3H]hypoxanthine incorporation after 48 hrs; type: cell-based; conditions: Chlorocebus sabaeus
[8] = test system: Plasmodium falciparum; assay: Antiplasmodial activity against chloroquine-resistant Plasmodium falciparum FcB1 after 48 hrs by [3H]hypoxanthine uptake; type: functional, organism-based; conditions: FcB1/Columbia
[9] = Selectivity index, ratio of IC50 for african green monkey (Cercopithecus aethiops) Vero cells to IC50 for chloroquine-resistant Plasmodium falciparum W2; type: toxicity, cell-based; conditions: read-out: Ratio IC50
[10] = test system: Plasmodium falciparum; assay: Antiplasmodial activity against chloroquine-resistant Plasmodium falciparum W2 after 48 hrs by [3H]hypoxanthine uptake; type: functional, organism-based

Structure (SMILES) | selectivity ratio [1] | IC50 [2] [µM] | selectivity ratio [3] | IC50 [4] [µM] | selectivity ratio [5] | IC50 [6] [µM] | IC50 [7] [µM] | IC50 [8] [µM] | selectivity ratio [9] | IC50 [10] [µM]
COc1cc2cccnc2c2nc(C)c3ccoc3c12 | 39 | 0.86 | 129 | 3.75 | 72 | 0.48 | 62.2 | 0.93 | 66 | 0.93
COc1cc2cccnc2c2nc(C)c3cc[nH]c3c12 | 132 | 0.41 | 23 | 9.8 | 72 | 1.28 | 29.8 | 0.22 | 23 | 1.28
Cc1nc2c(ccc3cccnc32)c2[nH]ccc12 | 54 | 1.31 | 7 | 10.6 | 47 | 9.36 | 61.6 | 1.14 | 15 | 4.17
Cc1nc2c(ccc3cccnc32)c2occc12 | 39 | 1.18 | 99 | 5.5 | 32 | 0.38 | 37.6 | 0.97 | 34 | 1.1
COc1cc2cccnc2c2nc(C)c(CCCl)c(Cl)c12 | – | 7.71 | – | – | – | 5 | – | 4.84 | – | 6.56
COc1cc(NC(C)CCCN)c2ncccc2c1 (stereo not given) [PRIMAQUINE] | – | – | – | – | – | – | 340 | – | – | –
